Measurements taken from patent US20260000624A1, “IONIZABLE LIPID CONTAINING BIODEGRADABLE DISULFIDE BOND AND LIPID NANOPARTICLES COMPRISING SAME” (ST PHARM CO., LTD., priority 2022, published 2026).

Columns and labels:
[1] = test system: HeLa cells (HeLa-Luc) expressing luciferase; assay: Luc siRNA delivery, luminescence intensity in luciferase-expressing HeLa cells; assay type: cell-based; conditions: Luc siRNA LNP 5 nM/well, 24 hours, FIG. 3
Procedure: The test was conducted by delivering siRNA molecules, which inhibit the expression of luciferase enzyme, into engineered HeLa cells (HeLa-Luc) expressing luciferase using each lipid nanoparticle synthesized with various amine headgroups (Compound 1 to Compound 5, Compound 11, and Compound 12). The expression of the gene was confirmed by measuring the luminescence intensity.
Specifically, lipid nanoparticles encapsulated with Luc siRNAs (SEQ ID NOs: 4 and 5) at a concentration of 5 nM/well (based on siRNA concentration) were treated into the Hella cell line (Nexel, Korea) seeded in 96-well plate at […]. After 24 hours, the cells were treated with 100 μl/well of Bright-Glo™ luciferase assay solution (promega, USA) and left at room temperature for 10 minutes, and then the luminescence intensity of the lysed cells was measured using an Infinite M200 plate reader (Tecan, USA) (FIG. 3).

hepatocytes (HeLa) = assay: GFP mRNA delivery, fluorescence intensity of lysed cells; assay type: cell-based; conditions: GFP mRNA LNP 0.1 μg/well, 24 hours, FIG. 4
Procedure: The test was conducted by delivering GFP mRNA molecules into hepatocytes (HeLa) using each lipid nanoparticle synthesized with various amine headgroups (Compound 1 to Compound 5, Compound 11, and Compound 12). The expression of the gene was confirmed by measuring the […] intensity.
Specifically, lipid nanoparticles encapsulated with 100 ng GFP mRNA (SEQ ID NO: 6) at a concentration of 0.1 μg/well (based on mRNA concentration) were treated into the hepatocyte line (Nexel, Korea) seeded in 96-well plate at 1×10^5 cells/well. After 24 hours, the cells were treated with 100 μl/well of cell lysis buffer (Thermofischer, US) and left at room temperature for 10 minutes, and then the fluorescence intensity of the lysed cells was measured using an Infinite M200 plate reader (Tecan, USA) (FIG. 4).

C57BL/6 mice [2] = assay: Luc mRNA delivery via intravenous injection, bioluminescence by IVIS; assay type: in vivo; conditions: 0.1 mg/kg Luc mRNA, 3 hours, SM-102 control, FIG. 7
Procedure: To investigate the mRNA delivery of the 221-SS lipid nanoparticles, luciferase mRNA was delivered into mice, and gene expression was confirmed by bioluminescence.
Specifically, 221-SS 3 tail lipid nanoparticles encapsulated with Luc mRNA (SEQ ID NO: 1) were manufactured by the method of Example 2-3 above. The prepared lipid nanoparticles were injected intravenously into 7-week-old C57BL/6 mice at a dose of 0.1 mg/kg (based on mRNA), and 3 hours later, luciferin 0.25 mg/kg was administered intraperitoneally and bioluminescence was confirmed by IVIS (PerkinElmer, USA).
Next, in order to confirm the effect of the number of disulfide bond chains (tails), an in vivo assay using lipid nanoparticles encapsulated with 2 μg (0.1 mg/kg) of Luc mRNA (SEQ ID NO: 1) containing either 221-SS 3-tail (Compound 5) or 221-SS 4-tail (Compound 6) was performed via intravenous injection. The same experiment was also performed using lipid nanoparticles manufactured from a 1:1 mixture of 221-SS 3 chain and 221-SS 4 chain, wherein SM-102, FDA-approved ionizable lipid, was used as a control group.
Specifically, the respective lipid nanoparticles were injected intravenously into 7-week-old C57BL/6 mice at a dose of 0.1 mg/kg (based on mRNA), and 3 hours later, luciferin 0.25 mg/kg was administered intraperitoneally and bioluminescence was confirmed by IVIS (PerkinElmer, USA).

C57BL/6 mice [3] = assay: Luc mRNA delivery via intramuscular injection, bioluminescence by IVIS; assay type: in vivo; conditions: 0.1 mg/kg Luc mRNA, 3 hours, SM-102 control, FIG. 9
Procedure: Luc mRNA (SEQ ID NO: 1) was delivered to mice by intramuscular injection, and gene expression was confirmed by bioluminescence.
Specifically, lipid nanoparticles (221-SS 3 tail, 221-SS 4 tail alone and mixed) containing Luc mRNA were manufactured, as described above, followed by intramuscular injection into C57BL/6 mice at a concentration of 0.1 mg/kg (based on mRNA). After 3 hours, luciferin 0.25 mg/kg was administered intraperitoneally and bioluminescence was confirmed by IVIS (PerkinElmer, USA).

SMILES: CCCCCCCCCCCCSSCCN(CCSSCCCCCCCCCCCC)CCN(C)C [Compound 1]
- luminescence intensity (Luc siRNA delivery) [1]: higher efficiency
- fluorescence intensity (GFP mRNA delivery) (hepatocytes (HeLa)): higher efficiency

SMILES: CCCCCCCCCCCCSSCCNCCCN(C)CCCN(CCSSCCCCCCCCCCCC)CCSSCCCCCCCCCCCC [Compound 5]
- luminescence intensity (Luc siRNA delivery) [1]: higher efficiency
- bioluminescence according to number of chains (C57BL/6 mice [2]): better effects than the negative control
- bioluminescence according to number of chains (C57BL/6 mice [3]): superior to the negative control
- fluorescence intensity (GFP mRNA delivery) (hepatocytes (HeLa)): higher efficiency

SMILES: CCCCCCCCCCCCSSCCN(CCCN(C)CCCN(CCSSCCCCCCCCCCCC)CCSSCCCCCCCCCCCC)CCSSCCCCCCCCCCCC [Compound 6]
- bioluminescence according to number of chains (C57BL/6 mice [2]): better effects than the negative control
- bioluminescence according to number of chains (C57BL/6 mice [3]): superior to the negative control
